Common to all, as to format: cell-based
In test [1] the target is Neuronal acetylcholine receptor subunit alpha-7 (Rattus norvegicus) (UniProt Q05941). The test is described as follows: Inhibition of rat alpha7 nAChR expressed in Xenopus laevis oocytes assessed as inhibition of acetylcholine-induced current at 100 nM preincubated with compound for 1 hr followed by compound washout and measured for 20 mins by two electrode voltage-clamp assay. To be noted: Oocyte. (Two-electrode voltage clamp holds a large cell at a set potential and records current.)

In test [2] the target is Neuronal acetylcholine receptor; alpha3/beta2 (Rattus norvegicus) (UniProt P04757+P12390). Put plainly: Inhibition of rat alpha3/beta2 nAChR expressed in Xenopus laevis oocytes assessed as inhibition of acetylcholine-induced current at 10 uM by two electrode voltage-clamp assay. To be noted: Oocyte.
Test [3] deals with Neuronal acetylcholine receptor; alpha2/beta4 (Homo sapiens) (UniProt P30926+Q15822). The test is described as follows: Inhibition of human alpha2/beta4 nAChR expressed in Xenopus laevis oocytes at 10 uM. The conditions noted are these: Oocyte.
Test [4] addresses Neuronal acetylcholine receptor; alpha3/beta4 (Homo sapiens) (UniProt P30926+P32297). The test is described as follows: Inhibition of human alpha3/beta4 nAChR expressed in Xenopus laevis oocytes at 10 uM. To be noted: Oocyte.
Test [5] concerns Oocyte. The test is described as follows: Inhibition of rat alpha2/beta4 nAChR expressed in Xenopus laevis oocytes assessed as inhibition of acetylcholine-induced current at 10 uM by two electrode voltage-clamp assay.
In test [6] the test system is Oocyte. The test is described as follows: Inhibition of mouse alpha1/beta1/delta/epsilon nAChR expressed in Xenopus laevis oocytes assessed as inhibition of acetylcholine-induced current at 10 uM by two electrode voltage-clamp assay.
In test [7] the target is Neuronal acetylcholine receptor; alpha9/alpha10 (Homo sapiens) (UniProt Q9UGM1+Q9GZZ6). The test is described as follows: Inhibition of human alpha9/alpha10 nAChR expressed in Xenopus laevis oocytes at 10 uM. The conditions noted are these: Oocyte.
Test [8] concerns the target Neuronal acetylcholine receptor; alpha3/beta2 (Homo sapiens) (UniProt P17787+P32297). The test is described as follows: Inhibition of human alpha3/beta2 nAChR expressed in Xenopus laevis oocytes at 10 uM. To be noted: Oocyte.
Test [9] deals with Neuronal acetylcholine receptor; alpha3/beta4 (Rattus norvegicus) (UniProt P04757+P12392). The test is described as follows: Inhibition of rat alpha3/beta4 nAChR expressed in Xenopus laevis oocytes assessed as inhibition of acetylcholine-induced current at 10 uM by two electrode voltage-clamp assay. The conditions noted are these: Oocyte.
Test [10] addresses T1, Neuronal acetylcholine receptor; alpha4/beta2 (Rattus norvegicus) (UniProt P09483+P12390). The test is described as follows: Inhibition of rat alpha4/beta4 nAChR expressed in Xenopus laevis oocytes assessed as inhibition of acetylcholine-induced current at 10 uM by two electrode voltage-clamp assay. To be noted: Oocyte.
In test [11] the test system is Oocyte. The test is described as follows: Inhibition of human alpha2/beta2 nAChR expressed in Xenopus laevis oocytes at 10 uM.
Test [12] concerns the target Neuronal acetylcholine receptor subunit alpha-7 (Rattus norvegicus) (UniProt Q05941). The test is described as follows: Inhibition of rat alpha7 nAChR expressed in Xenopus laevis oocytes assessed as inhibition of acetylcholine-induced current at 10 uM by two electrode voltage-clamp assay. The conditions noted are these: Oocyte.
Test [13] concerns the target Nicotinic acetylcholine receptor alpha6/alpha3/beta4 (Rattus norvegicus) (UniProt P04757+P12392+P43143). Put plainly: Inhibition of rat alpha6/alpha3/beta4 nAChR expressed in Xenopus laevis oocytes assessed as inhibition of acetylcholine-induced current at 10 uM by two electrode voltage-clamp assay. To be noted: Oocyte.
The target in test [14] is Nicotinic acetylcholine receptor alpha6/alpha3/beta4 (Homo sapiens) (UniProt P30926+P32297+Q15825). Put plainly: Inhibition of human alpha6/alpha3/beta4 nAChR expressed in Xenopus laevis oocytes at 10 uM. To be noted: Oocyte.
The target in test [15] is Neuronal acetylcholine receptor; alpha4/beta4 (Homo sapiens) (UniProt P30926+P43681). Put plainly: Inhibition of human alpha4/beta4 nAChR expressed in Xenopus laevis oocytes at 10 uM. The conditions noted are these: Oocyte.
The subject of test [16] is Oocyte. Put plainly: Inhibition of human alpha6/alpha3/beta2/beta3 nAChR expressed in Xenopus laevis oocytes at 10 uM.
The target in test [17] is Neuronal acetylcholine receptor; alpha2/beta2 (Rattus norvegicus) (UniProt P12389+P12390). The test is described as follows: Inhibition of rat alpha2/beta2 nAChR expressed in Xenopus laevis oocytes assessed as inhibition of acetylcholine-induced current at 10 uM by two electrode voltage-clamp assay. The conditions noted are these: Oocyte.
For test [18], the target named is Nicotinic acetylcholine receptor alpha9/alpha10 (Rattus norvegicus) (UniProt P43144+Q9JLB5). Put plainly: Inhibition of rat alpha9/alpha10 nAChR expressed in Xenopus laevis oocytes assessed as inhibition of acetylcholine-induced current at 10 uM by two electrode voltage-clamp assay. To be noted: Oocyte.
Test [19] concerns Oocyte. Put plainly: Inhibition of rat alpha6/alpha3/beta2/beta3 nAChR expressed in Xenopus laevis oocytes assessed as inhibition of acetylcholine-induced current at 10 uM by two electrode voltage-clamp assay.
Test [20] has as its target T1, Neuronal acetylcholine receptor; alpha4/beta2 (Rattus norvegicus). Put plainly: Inhibition of rat alpha4/beta2 nAChR expressed in Xenopus laevis oocytes assessed as inhibition of acetylcholine-induced current at 10 uM by two electrode voltage-clamp assay. To be noted: Oocyte.
The target of test [21] is Neuronal acetylcholine receptor; alpha4/beta2 (Homo sapiens) (UniProt P17787+P43681). The test is described as follows: Inhibition of human alpha4/beta2 nAChR expressed in Xenopus laevis oocytes at 10 uM. To be noted: Oocyte.
Test [22] has as its target Neuronal acetylcholine receptor subunit alpha-7 (Homo sapiens) (UniProt P36544). The test is described as follows: Inhibition of human alpha7 nAChR expressed in Xenopus laevis oocytes at 10 uM. The conditions noted are these: Oocyte.
Test [23] is described as follows: Inhibition of rat alpha6/alpha3/beta2/beta3 nAChR expressed in Xenopus laevis oocytes assessed as inhibition of acetylcholine-induced current by two electrode voltage-clamp assay. The conditions noted are these: Oocyte.
Test [24] can be described thus: Inhibition of rat alpha2/beta4 nAChR expressed in Xenopus laevis oocytes assessed as inhibition of acetylcholine-induced current by two electrode voltage-clamp assay. To be noted: Oocyte.
Test [25] in a line: Inhibition of mouse alpha1/beta1/delta/epsilon nAChR expressed in Xenopus laevis oocytes assessed as inhibition of acetylcholine-induced current by two electrode voltage-clamp assay. The conditions noted are these: Oocyte.

SMILES strings stand for the structures. The source made the active and inactive calls. The calls are words filed in the database; no cut-off is given here. Where a SMILES comes first, the peptide text is derived from it. Bridges are numbered along the chain shown (N, C = ends). [ ]: non-standard residue; d: D form. ξ: configuration not given here. ξD = NC(CC(=O)O)C(=O)O

In general, IC50 refers to the concentration needed to halve the response being measured.

Neuronal acetylcholine receptor subunit alpha-7 (Rattus norvegicus), sequence (Q05941 whole entry): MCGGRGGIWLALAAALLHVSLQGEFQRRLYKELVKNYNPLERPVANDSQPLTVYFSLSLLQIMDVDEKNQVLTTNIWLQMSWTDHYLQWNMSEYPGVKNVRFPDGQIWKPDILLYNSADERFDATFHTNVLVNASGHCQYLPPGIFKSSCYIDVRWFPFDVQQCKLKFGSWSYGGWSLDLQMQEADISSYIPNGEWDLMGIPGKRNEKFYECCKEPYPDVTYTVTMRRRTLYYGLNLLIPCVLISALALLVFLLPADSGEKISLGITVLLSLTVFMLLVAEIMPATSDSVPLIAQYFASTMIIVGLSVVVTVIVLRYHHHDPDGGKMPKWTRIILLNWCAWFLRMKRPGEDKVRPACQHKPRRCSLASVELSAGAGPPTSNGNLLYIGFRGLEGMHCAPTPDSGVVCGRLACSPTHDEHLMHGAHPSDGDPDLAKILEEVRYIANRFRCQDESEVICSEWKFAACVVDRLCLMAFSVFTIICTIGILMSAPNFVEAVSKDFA
Neuronal acetylcholine receptor subunit alpha-7 (Homo sapiens), sequence (P36544 whole entry): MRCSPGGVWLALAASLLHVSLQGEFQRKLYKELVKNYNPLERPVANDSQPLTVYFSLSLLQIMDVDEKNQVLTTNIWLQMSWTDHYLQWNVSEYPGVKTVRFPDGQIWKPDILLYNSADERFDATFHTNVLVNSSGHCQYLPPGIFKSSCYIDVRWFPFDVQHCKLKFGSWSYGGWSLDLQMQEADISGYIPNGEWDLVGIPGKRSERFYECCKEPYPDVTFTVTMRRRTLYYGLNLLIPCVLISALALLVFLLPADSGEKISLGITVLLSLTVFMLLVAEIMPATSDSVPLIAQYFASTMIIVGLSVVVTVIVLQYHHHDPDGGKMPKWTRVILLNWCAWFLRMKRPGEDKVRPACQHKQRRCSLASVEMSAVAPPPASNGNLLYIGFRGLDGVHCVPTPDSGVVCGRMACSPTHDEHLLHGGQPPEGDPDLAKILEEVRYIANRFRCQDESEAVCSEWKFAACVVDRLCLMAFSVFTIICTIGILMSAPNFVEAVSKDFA

`CC[C@H](C)[C@@H]1NC(=O)[C@H](CC(=O)O)NC(=O)[C@@H]2CCCN2C(=O)[C@H](CC(N)=O)NC(=O)[C@H](CCC(N)=O)NC(=O)[C@H](CC(C)C)NC(=O)[C@H]([C@@H](C)CC)NC(=O)[C@@H]2CSSC[C@H](NC(=O)[C@@H](N)CC(=O)O)C(=O)N[C@@H](CSSC[C@@H](C(N)=O)NC1=O)C(=O)N[C@@H](CO)C(=O)N[C@@H](CCC(=O)O)C(=O)N1CCC[C@H]1C(=O)N1CCC[C@H]1C(=O)N2` (H-DCCSEPPCILQNPDIC-NH2; disulfide 2-8, 3-16): the inhibition result in [1], in test [2], in test [3], in [4], in [5] and in test [6] was “inactive” throughout. The inhibition result in test [7], in test [8], in test [9], in [10], in test [11] and in test [12] was “inactive” each time. The inhibition entry in [13], in test [14], in test [15], in test [16], in [17] and in test [18] was “inactive” each time. In addition, the inhibition result in test [19], in [20], in test [21] and in [22] was “inactive” in each case.
As to `CC[C@H](C)[C@@H]1NC(=O)[C@H](CC(=O)O)NC(=O)[C@@H]2CCCN2C(=O)[C@H](CC(N)=O)NC(=O)[C@H](CCC(N)=O)NC(=O)[C@H](CC(C)C)NC(=O)[C@H]([C@@H](C)CC)NC(=O)[C@@H]2CSSC[C@H](NC(=O)C(N)CC(=O)O)C(=O)N[C@@H](CSSC[C@@H](C(N)=O)NC1=O)C(=O)N[C@@H](CO)C(=O)N[C@@H](C)C(=O)N1CCC[C@H]1C(=O)N1CCC[C@H]1C(=O)N2` (stereo not given in full) (H-[ξD]CCSAPPCILQNPDIC-NH2; disulfide 2-8, 3-16), the results for the IC50 in test [23], in [24] and in test [25] were 0.112 µM, greater than 10 µM and greater than 10 µM, respectively.

The values are drawn from ChEMBL document CHEMBL6134861 (J Med Chem, 2025).
